Experimental data from ChEMBL document CHEMBL1150070, “A novel cytotoxic macrolide, superstolide B, related to superstolide A, from the New Caledonian marine sponge Neosiphonia superstes” (J Nat Prod, 1994).
Values after ≈ are worked out from the molar mass of the structure shown.

Assays:
Format in all cases: functional, cell-based
[1] = test system: P388; experiment: Cytotoxicity against mouse P388 cells
[2] = Cytotoxicity against human NSCLC-N6-L16 cells
[3] = test system: KB; experiment: Cytotoxicity against human KB cells

Molecule `CO[C@@H]1C[C@H](OC(N)=O)[C@@H]2C=C[C@@H]3/C=C(C)/C=C/[C@@H](C)[C@H](/C(C)=C/[C@@H](C)NC(C)=O)OC(=O)/C=C/C=C(C)\C=C\[C@]3(C)[C@@H]2C1` [SUPERSTOLIDE B] has an IC50 [1] of 3 ng/mL (≈ 4.94 nM), an IC50 [2] of 39 ng/mL (≈ 64.3 nM) and an IC50 [3] of 5 ng/mL (≈ 8.24 nM).
